From US20260245655A1, “METHODS FOR DETERMINING DRUG CANDIDATES” (MOSAIQUES DIAGNOSTICS AND THERAPEUTICS AG, priority 2023, published 2026)
“Also recorded” adds a separate entry of the source.

Tests used:
[1] = tested on: BC cell lines: non-muscle invasive (RT112) and muscle invasive (T24, BFTC905, HT1376) cells; test: in vitro screening of drug candidates on growth/proliferation of BC cell lines; format: cell-based; conditions: for proliferation rate of the BC cells (dose response curves): FIG. 2; for cell growth of BC cells: in vitro, panel of BC cell lines RT112, T24, BFTC905, HT1376
Protocol: The impact of the drug candidates onto the malignant phenotype of BC cells was assessed in vitro in a panel of multi-origin BC cell lines representing different stages during disease progression. These included non-muscle invasive (RT112) and muscle invasive (T24, BFTC905, HT1376) cells.
Accordingly, these compounds were selected for further investigation, here providing the response curves for four different BC cell lines. Representative response curves of the seven compounds are presented in FIG. 2, along with the respective IC50s. A clear impact was observed on the proliferation of the BC cells for all seven compounds.
FIG. 2. The dose response curves of cephaeline (i-ii), exemestane (iii-iv) and 1,4 chrysenequinone (v-vi) in the BC cell lines RT112, T24, HT1376 and BFTC905. The dose response curves of fluvoxamine (vii), amiodarone (viii), isradipine (ix) and amodiaquine (x) in the RT112 cells are also provided.

BFTC905 xenograft = BFTC905 xenograft mouse model; format: in vivo, NOD/SCID male mice; conditions: start three days after cell injection, observed at least 17 days, vs DMSO control
Protocol: In vivo testing of exemestane, cephaeline and 1,4 chrysenequinone was performed in xenograft mouse models. Particularly, the model was established after injecting […] BFTC905 cells subcutaneously into the tail base of NOD/SCID male mice. Male mice were selected for these experiments since males are more prone to develop BC. The treatments started three days after the injections of the cancer cells. The treatment scheme was 30 mg/kg/every 3rd day for exemestane, 5 mg/kg/daily for cephaeline and 5 mg/kg/daily for 1,4 chrysenequinone. As controls were used animals injected with DMSO diluted in PBS (at a final concentration similar to the one of the compounds).
FIG. 3. The impact of cephaeline, exemestane and 1,4 chrysenequinone in vivo in BFTC905 xenograft mouse models.

[2] = BC cell lines RT112, T24, HT1376 and BFTC905

| Compound | proliferation rate of the BC cells (dose response curves) ([1]; RT112 cells) | cell growth of BC cells [1] | impact on tumor establishment or growth (BFTC905 xenograft; 30 mg/kg/every 3rd day) | proliferation rate of the BC cells (dose response curves) [1, 2] | impact on tumor establishment or growth (BFTC905 xenograft; 5 mg/kg/daily) |
| --- | --- | --- | --- | --- | --- |
| COCCCC/C(=N\OCCN)c1ccc(C(F)(F)F)cc1 [fluvoxamine] | significantly decreased the proliferation rate | prevented cell growth at relatively low concentrations |  |  |  |
| C=C1C[C@@H]2[C@H](CC[C@]3(C)C(=O)CC[C@@H]23)[C@@]2(C)C=CC(=O)C=C12 [exemestane] |  | prevented cell growth at relatively low concentrations | clear impact on tumor establishment or growth; also recorded: significantly decreased tumor establishment or growth | significantly decreased the proliferation rate |  |
| COC(=O)C1=C(C)NC(C)=C(C(=O)OC(C)C)C1c1cccc2nonc12 (centres unmarked) [isradipine] | significantly decreased the proliferation rate | prevented cell growth at relatively low concentrations |  |  |  |
| CCCCc1oc2ccccc2c1C(=O)c1cc(I)c(OCCN(CC)CC)c(I)c1 [amiodarone] | significantly decreased the proliferation rate | prevented cell growth at relatively low concentrations |  |  |  |
| O=C1C=CC(=O)c2c1ccc1c2ccc2ccccc21 [1,4-chrysenequinone] |  | prevented cell growth at relatively low concentrations |  | significantly decreased the proliferation rate | no significant impact on tumour growth |
| CCN(CC)Cc1cc(Nc2ccnc3cc(Cl)ccc23)ccc1O [amodiaquine] | significantly decreased the proliferation rate | prevented cell growth at relatively low concentrations |  |  |  |
